Test results from article PMC8469169, “Design, Synthesis, and Cytotoxicity Assessment of [^64Cu]Cu-NOTA-Terpyridine Platinum Conjugate: A Novel Chemoradiotherapeutic Agent with Flexible Linker” (Nanomaterials, 2021).
Values joined by “and” are separate entries in the source; they are usually repeats but may differ in a detail not shown here. Identical values can stand only once. Like-named read-outs stand apart in the source and are kept apart here.

Legend:
HCT116 cells [1] = conditions: cited from earlier work
HCT116 cells [2] = test: PrestoBlue (resazurin) cytotoxicity assay in HCT116 cells; assay type: cell-based, human
Description: Human CRC cells HCT116 obtained from ATCC were cultured in Eagle’s minimal essential medium (EMEM), while Dulbecco’s modified Eagle medium (DMEM) was used for the normal fibroblast cell line GM05757 purchased from Coriell Institute. […] Cells were incubated at 37 °C in a humidified environment with 5% CO2.
Cytotoxic activity was measured with the PrestoBlue method, which consists of a Resazurin-based metabolic assay. […] The final concentration of DMSO was less than 1%. Then, the media were removed, and the cells were washed with warm PBS and exposed with PrestoBlue reagent for an incubation time of 20 min. Changes in cell viability were recorded by fluorescence (λex = 570 nm; λem = 610 nm). […] The fluorescence values measured for blank groups were subtracted from those obtained from the treated and untreated cells.

GM05757 cells [3] = test: PrestoBlue (resazurin) cytotoxicity assay in GM05757 normal fibroblasts
Description: Human CRC cells HCT116 obtained from ATCC were cultured in Eagle’s minimal essential medium (EMEM), while Dulbecco’s modified Eagle medium (DMEM) was used for the normal fibroblast cell line GM05757 purchased from Coriell Institute. These culture media were supplemented with 10% FBS, 26.2 mM sodium bicarbonate, 2 mM L-glutamine, and a mix of penicillin (100 UI/mL) and streptomycin (100 μg/mL). Cells were incubated at 37 °C in a humidified environment with 5% CO2.
Cytotoxic activity was measured with the PrestoBlue method, which consists of a Resazurin-based metabolic assay. Briefly, HCT116 cells (2 × 10^4 cells per well) and GM05757 cells (5 × 10^3 cells per well) were seeded in a 96-well plate and incubated for 24 h. Then, the cells were treated with the Pt drugs at concentrations ranging from 0 to 500 µM for a subsequent 24, 48, and 72 h. […] The final concentration of DMSO was less than 1%. Then, the media were removed, and the cells were washed with warm PBS and exposed with PrestoBlue reagent for an incubation time of 20 min. Changes in cell viability were recorded by fluorescence (λex = 570 nm; λem = 610 nm). […] The fluorescence values measured for blank groups were subtracted from those obtained from the treated and untreated cells.

GM05757 cells [4] = conditions: high AMA
Description: For extraction of HCT116 and GM05757 cell nucleus and cytoplasm, we followed a previously reported procedure. After treatment of HCT116 cells with 1MBq of [^64Cu]Cu-NOTA-C3-TP for 24, 48 and 72 h, CSK buffer (0.5% Triton X-100, 300 mM sucrose, 100 mM NaCl, 1 mM ethylenediaminetetraacetic acid (EDTA), 2 mM MgCl2, and 10 mM HEPES, pH 6.8) were employed for nuclear extraction. After 5 min centrifugation, supernatant was separated, and the retained activity in nuclear plates was counted by a gamma counter (HIDEX Automatic Gamma Counter 2014).

HCT116 cells [5] = test: Subcellular (nucleus/cytoplasm) localization in HCT116 cells; assay type: cell-based, human; conditions: for Nucleus accumulation HCT116 versus GM05757 (fold reduction in GM05757) / Cytoplasmic distribution / Nucleus localization: high AMA; for Cytoplasmic distribution / Nucleus localization: HCT116
Description: For extraction of HCT116 and GM05757 cell nucleus and cytoplasm, we followed a previously reported procedure [28, 31]. After treatment of HCT116 cells with 1MBq of [^64Cu]Cu-NOTA-C3-TP for 24, 48 and 72 h, CSK buffer (0.5% Triton X-100, 300 mM sucrose, 100 mM NaCl, 1 mM ethylenediaminetetraacetic acid (EDTA), 2 mM MgCl2, and 10 mM HEPES, pH 6.8) were employed for nuclear extraction. After 5 min centrifugation, supernatant was separated, and the retained activity in nuclear plates was counted by a gamma counter (HIDEX Automatic Gamma Counter 2014).

[6] = Pt release at physiological pH by mass spectroscopy; assay type: physicochemical; conditions: physiological pH 7.2, after 72 h
HCT116 cells [7] = test: Cellular uptake and internalization in HCT116 cells (gamma counting); assay type: cell-based, human
Description: (§1) HCT116 cells (2 × 10^5 per well) were seeded in 12-well plates for 48 h in EMEM medium completed with 10% FBS at 37 °C until 80% confluence. Cells were washed twice with PBS, and then [^64Cu]Cu-NOTA-C3-TP (0.1 MBq, 50 µL) in EMEM completed medium was added and incubated from 15 min to 72 h to measure cellular uptake and internalization. At each time point, the radioactive media was removed, and cells were washed thrice with cold PBS. To measure the net cellular uptake or internalized fraction, surface-bound Pt drugs were removed by treating with 50 mM glycine in PBS pH 2.2 for 10 min, which was followed by a second cold PBS wash. Then, cells were harvested through trypsinization and counted with a hemocytometer. The radioactivity was measured in a gamma counter (HIDEX Automatic Gamma Counter 2014). The results were expressed as a percentage of added dose (AD) retained per 10^6 cells (%AD/10^6 cells). Parallel experiments were carried out at 4 °C to assess internalization inhibition and surface-bound fraction. For efflux studies, HCT116 cells were incubated for 1 h with 0.1 MBq of [^64Cu]Cu-NOTA-C3-TP. Then, the cells were washed with PBS and fresh culture medium was added. After 0 to 72 h, the medium was removed, and the cells were washed thrice with PBS. Finally, the cells were harvested, and radioactivity was counted with the gamma counter. The results were expressed as percentage of total activity retained by 10^6 cells relative to baseline at 0 min.

HCT116 cells [8] = test: Efflux assay in HCT116 cells; assay type: cell-based, human
Description: as §1, with “For efflux studies, HCT116 cells were incubated for 1 h with 0.1 MBq of [^64Cu]Cu-NOTA-C3-TP. Then, the cells were washed with PBS and fresh culture medium was added. After 0 to 72 h, the medium was removed, and the cells were washed thrice with PBS.” left out
For efflux studies, we followed the standard protocol of Fournier et al.. […] The activity retained by the cells was measured from 0 to 72 h post administration.

[9] = Plasma stability by radio-TLC; assay type: in vitro ADME, mouse; conditions: room temperature; radio-iTLC; free 64Cu or fragments
Description: Plasma stability of the compound was assessed by incubating [^64Cu]Cu-NOTA-C3-TP in mouse plasma for 72 h at room temperature. Radio-TLC on C18 plates conducted on 0.1 M sodium citrate buffer at pH 5.5, as a developing solvent, was used to detect free ^64Cu. [^64Cu]Cu-NOTA-C3-TP and free [^64Cu]Cu(OAc)2 were employed as control standards.

[10] = 24 h incubation, read-out: EC50 HCT116 24 h
[11] = 48 h incubation, read-out: EC50 HCT116 48 h
[12] = 72 h incubation, read-out: EC50 HCT116 72 h
[13] = read-out: EC50 GM05757 24 h, 24 h incubation
[14] = read-out: EC50 GM05757 48 h, 48 h incubation
[15] = read-out: EC50 GM05757 72 h, 72 h incubation
[16] = HCT116, 24 h, low AMA 0.8 to 4.0 MBq/nmol
[17] = HCT116, 37 °C, 24 h, % of total activity/10^6 cells

N.N.[Cl][Pt][Cl] [Cisplatin, reference compound]
Cellular accumulation (HCT116 cells [1]): 5 ng Pt/10^6 HCT116 cells
EC50 (HCT116 cells [2]; [10]): 31 ± 2 µM
EC50 (HCT116 cells [2]; [11]): 42 ± 8 µM
EC50 (HCT116 cells [2]; [12]): 23 ± 3 µM
EC50 (GM05757 cells [3]; [13]): 88 ± 4 µM
EC50 (GM05757 cells [3]; [14]): 84 ± 2 µM
EC50 (GM05757 cells [3]; [15]): 77 ± 1 µM

O=C1[O][Pt]2([NH][C@@H]3CCCC[C@H]3[NH]2)[O]C1=O [Oxaliplatin, reference compound]
EC50 (HCT116 cells [2]; [10]): > 200 µM
EC50 (HCT116 cells [2]; [11]): 64 ± 1 µM
EC50 (HCT116 cells [2]; [12]): 16 ± 4 µM
EC50 (GM05757 cells [3]; [13]): > 200 µM
EC50 (GM05757 cells [3]; [14]): 165 ± 9 µM
EC50 (GM05757 cells [3]; [15]): 65 ± 3 µM

F[P-](F)(F)(F)(F)F.O=C(O)CN1CCN(CCCOc2cc3[n+]4c(c2)-c2cccc[n+]2[Pt-2]4([Cl])[n+]2ccccc2-3)CCN(CC(=O)O)CC1 [NOTA-C3-TP]
EC50 (HCT116 cells [2]; [10]): > 700 µM
EC50 (HCT116 cells [2]; [11]): 63 ± 2 µM
EC50 (HCT116 cells [2]; [12]): 24 ± 1 µM
EC50 (GM05757 cells [3]; [13]): 504 ± 4 µM
EC50 (GM05757 cells [3]; [14]): 202 ± 5 µM
EC50 (GM05757 cells [3]; [15]): 51 ± 3 µM

O=C([O-])CN1CCN(CCCOc2cc3[n+]4c(c2)-c2cccc[n+]2[Pt-2]4([Cl])[n+]2ccccc2-3)CCN(CC(=O)[O-])CC1.[64Cu+2] [[^64Cu]Cu-NOTA-C3-TP]
Cytoplasmic distribution (GM05757 cells [4]; 24 h): 46 ± 6%
Nucleus localization (GM05757 cells [4]; 24 h): 1.5 ± 0.2%
Cytoplasmic distribution (GM05757 cells [4]; 48 h): 53 ± 6.5%
Nucleus localization (GM05757 cells [4]; 48 h): 3 ± 0.4%
Cytoplasmic distribution (GM05757 cells [4]; 72 h): 58.5 ± 8.3%
Nucleus localization (GM05757 cells [4]; 72 h): 3 ± 0.1%
Increase in HCT116 nucleus uptake relative to [64Cu]Cu(OAc)2 (HCT116 cells [5]; 24 h): 2.8 fold
Nucleus accumulation HCT116 versus GM05757 (fold reduction in GM05757) (HCT116 cells [5]; 24 h): 5.7 fold
Increase in HCT116 nucleus uptake relative to [64Cu]Cu(OAc)2 (HCT116 cells [5]; 48 h): 4.9 fold
Nucleus accumulation HCT116 versus GM05757 (fold reduction in GM05757) (HCT116 cells [5]; 48 h): 4.4 fold
Increase in HCT116 nucleus uptake relative to [64Cu]Cu(OAc)2 (HCT116 cells [5]; 72 h): 3.7 fold
Nucleus accumulation HCT116 versus GM05757 (fold reduction in GM05757) (HCT116 cells [5]; 72 h): 4.1 fold
Cytoplasmic distribution (HCT116 cells [5]; 24 h): 76 ± 7.3%
Nucleus localization (HCT116 cells [5]; 24 h): 8.6 ± 3% and 8.6%
Cytoplasmic distribution (HCT116 cells [5]; 48 h): 61 ± 11%
Nucleus localization (HCT116 cells [5]; 48 h): 13.4 ± 4%
Cytoplasmic distribution (HCT116 cells [5]; 72 h): 61 ± 8.3%
Nucleus localization (HCT116 cells [5]; 72 h): 12.3 ± 1%
Viability of HCT116 cells (HCT116 cells [2]; 5 MBq, low AMA, 24 h incubation): 22%
Viability of HCT116 cells (HCT116 cells [2]; 8 MBq, low AMA, 24 h incubation): 17%
EC50 (HCT116 cells [2]; 24 h, high AMA ≈120 MBq/nmol, read-out: EC50 HCT116 24 h): 0.017 ± 0.004 µM
EC50 (HCT116 cells [2]; 24 h, low AMA 0.8 to 4.0 MBq/nmol, read-out: EC50 HCT116 24 h): 59 ± 3 µM
EC50 (HCT116 cells [2]; 48 h, high AMA ≈120 MBq/nmol, read-out: EC50 HCT116 48 h): 0.012 ± 0.006 µM
EC50 (HCT116 cells [2]; 48 h, low AMA 0.8 to 4.0 MBq/nmol, read-out: EC50 HCT116 48 h): 9 ± 2 µM
EC50 (HCT116 cells [2]; 72 h, high AMA ≈120 MBq/nmol, read-out: EC50 HCT116 72 h): 0.006 ± 0.002 µM
EC50 (HCT116 cells [2]; 72 h, low AMA 0.8 to 4.0 MBq/nmol, read-out: EC50 HCT116 72 h): < 5 µM
Fold more activity relative to [NatCu]Cu-NOTA-C3-TP and NOTA-C3-TP (HCT116 cells [2]; HCT116, 48 and 72 h, low AMA): 5–66 fold
Improvement of cytotoxicity with respect to [NatCu]Cu-NOTA-C3-TP (HCT116 cells [2]; HCT116, 24 h, high AMA ≈120 MBq/nmol): ~17,000 fold
Times more active than NOTA-C3-TP (HCT116 cells [2]; [16]): 12 times
Times more active than [NatCu]Cu-NOTA-C3-TP (HCT116 cells [2]; [16]): 5 times
Times more active than oxaliplatin (HCT116 cells [2]; [16]): 3.4 times
Improvement of cytotoxicity with respect to [NatCu]Cu-NOTA-C3-TP (HCT116 cells [2]; HCT116, 72 h, high AMA ≈120 MBq/nmol): > 55,000 fold and 55,000 fold
Selectivity toward cancer cells (HCT116 cells [2]; HCT116 vs GM05757, 24 h): 3.9
Times higher efficiency toward HCT116 relative to GM05757 (HCT116 cells [2]; high AMA, 24 to 72 h): 2–4 times
Pt released [6]: not seen
Cytotoxic activity on GM05757 lower than on HCT116 (fold) (GM05757 cells [3]; low AMA, 24 h): at least 3.4 fold
EC50 (GM05757 cells [3]; read-out: EC50 GM05757 24 h, 24 h, high AMA ≈120 MBq/nmol): > 0.066 µM
EC50 (GM05757 cells [3]; read-out: EC50 GM05757 24 h, 24 h, low AMA 0.8 to 4.0 MBq/nmol): > 200 µM
EC50 (GM05757 cells [3]; read-out: EC50 GM05757 48 h, 48 h, high AMA ≈120 MBq/nmol): 0.025 ± 0.005 µM
EC50 (GM05757 cells [3]; read-out: EC50 GM05757 72 h, 72 h, high AMA ≈120 MBq/nmol): 0.019 ± 0.004 µM
EC50 (GM05757 cells [3]; read-out: EC50 GM05757 72 h, 72 h, low AMA 0.8 to 4.0 MBq/nmol): 12 ± 2 µM
Internalization in HCT116 fold higher than in GM05757 (HCT116 cells [7]; 24 h, 37 °C): 3.1 fold
Internalization in HCT116 fold higher than in GM05757 (HCT116 cells [7]; 48 h, 37 °C): 1.8 fold
Internalization in HCT116 fold higher than in GM05757 (HCT116 cells [7]; 72 h, 37 °C): 2.1 fold
Uptake at 4 °C (passive accumulation), share of conjugate incubated (HCT116 cells [7]; HCT116, 4 °C): less than 1%
Cell-associated fraction higher than internalized fraction (HCT116 cells [7]; HCT116, 37 °C): 2 fold
Incubation time of maximum accumulation (HCT116 cells [7]; HCT116, 37 °C): 24 h
Internalized fraction (HCT116 cells [7]; HCT116, 37 °C, 15 min incubation, % of total activity/10^6 cells): 0.04 ± 0.02%
Cell-associated fraction (maximum) (HCT116 cells [7]; [17]): 40.0 ± 2.8%
Internalized fraction (maximum) (HCT116 cells [7]; [17]): 18.7 ± 2.8%
Cellular accumulation times larger than cisplatin (HCT116 cells [7]; HCT116, 24 h): 14.4 times
Cellular accumulation (maximum) (HCT116 cells [7]; HCT116, 24 h incubation, low AMA): 72 ng of Pt/10^6 HCT116 cells
Uptake at 4 °C lower than at 37 °C (HCT116 cells [7]; HCT116, passive accumulation): ~ 30 fold
Conjugate retained by cells (HCT116 cells [8]; 72 h post administration): more than 40%
Conjugate eliminated (efflux) (HCT116 cells [8]; first 6 h after 1 h incubation): About 42%
Stability in mouse plasma [9]: stable up to 72 h
